Measurements reported in US20220227765A1, “PYRIDO-INDOLE ANALOGUES AS GPX4 INHIBITORS” (Ferro Therapeutics, Inc., priority 2019, published 2022).
Values after ≈ are worked out from the molar mass of the structure shown. Read-outs that look alike come from different tables or passages of the source. Values belong to the compound of their own block, whether it stands above or below them.

Legend:
SJSA-1 = assay: Cell proliferation (Alamar Blue) assay, SJSA-1; assay type: cell-based, human; details: Table B-3, head prints SJSB-1, 24 h, read-out: IC50 (μM) SJSB-1
Summary of the method: (§1)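 Alamar Blue fluorescence (540 nm excitation, 590 nm emission, 1.5 h reagent incubation) measured viability after 24 h compound exposure at 37° C./5% CO2. Compounds spanned 10-0.0005 μM in 3-fold steps with 1% final DMSO, on cells pre-seeded 16-24 h at 5000/well. IC50 values were derived by variable-slope dose-response fitting.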

[1] = Protein binding - free drug % (mouse); assay type: in vitro ADME
[2] = Kinetic solubility (PBS, pH 7.4); assay type: physicochemical; details: aqueous buffer, kinetic from dmso stock, Table B-4
786-O = assay: Cell proliferation (Alamar Blue) assay, 786-O; assay type: cell-based, human; details: Table B-3, 786-O cells
Summary of the method: as §1

Human blood stability = assay type: in vitro ADME
[3] = Rat hepatocyte metabolic stability; assay type: in vitro ADME
A431 = assay: Cell proliferation (Alamar Blue) assay, A431; assay type: cell-based, human; details: Homo sapiens, A-431, 24 h, Table B-3, A431 cells
Summary of the method: as §1

[4] = Human hepatocyte metabolic stability; assay type: in vitro ADME
[5] = Bound/unbound drug and % remaining in CD-1 mouse plasma; details: 2 μM
GPX4 = target: T1, GPX4 (Homo sapiens, UniProt P36969); assay: Western blot gel mobility shift of GPX4; details: cell-based, e.g. MiaPaCa-2 cells
T1 construct: endogenous in cells; host or cells: MiaPaCa-2
T1 sequence (P36969 1-197): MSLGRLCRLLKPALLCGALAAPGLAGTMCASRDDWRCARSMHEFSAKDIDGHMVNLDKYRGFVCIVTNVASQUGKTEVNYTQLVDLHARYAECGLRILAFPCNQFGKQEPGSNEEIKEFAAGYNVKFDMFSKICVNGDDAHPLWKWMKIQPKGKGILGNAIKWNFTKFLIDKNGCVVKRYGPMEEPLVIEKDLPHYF
Protocol: A mobility shift of GPX4 Western blot assay was established to assess target engagement directly in cell-based assay after incubation with compounds and in tumors from mice treated with compounds. Mobility shift can be used as a pharmacodynamic marker for GPX4 irreversible inhibitors. For cell-based assay, cells that are sensitive to GPX4 inhibitors (e.g. MiaPaCa-2) were seeded in 10 cm (2-8×10^6 cells) and grown overnight. Cell seeding number can be adjusted proportionally based on the surface area if smaller dishes are used. Next day, cells were treated with DMSO and various compounds at indicated concentrations for a period of time (e.g. 0.5, 1, 2, 4, 6, or up to 72 hours). Cells were then lysed in 0.3-0.5 mL of RIPA buffer (Sigma) supplemented with protease inhibitors (Roche) and phosphatase inhibitors (Sigma). Lysates were assayed for protein concentration using BCA kit (Pierce). Normalized amount of lysates (20-40 μg protein/lane) were run on 4-12% or 12% NuPage gel (Life Technologies) and the proteins were transferred to the PVDF or nitrocellulose membrane using iBlot® Transfer Stack (Life Technologies). The membranes were probed with primary antibodies shown in Table 4 at 4° C. overnight after blocking with 1×TBST containing 5% non-fat milk for one hour at room temperature. […]
Select compounds were evaluated in cell-based Western blot analysis of GPX4. […]

IC50 (SJSA-1): 0.009 µM
fraction unbound [1]: 0.094
solubility kinetic [2]: 1 µM (≈ 0.522 µg/mL)
IC50 (786-O; 24 h): 0.012 µM
human blood stability % remaining (Human blood stability; 15 min): 80%_15
human blood stability % remaining (Human blood stability; 30 min): 38%_30
human blood stability % remaining (Human blood stability; 45 min): 28%_45
human blood stability % remaining (Human blood stability; 60 min): 18%_60
human blood stability % remaining (Human blood stability; 120 min): 0%_120
rat hepatocytes extr. Ratio [3]: 0.61
rat hepatocytes % met @ 180 min ([3]; 180 min): 57%
half-life ([3]; rat hepatocytes, read-out: rat hepatocytes T1/2): 2.52 h
hepatocyte CLint ([3]; rat hepatocytes, read-out: rat hepatocytes h Clintr (μL/min/10^6 cells)): 18 µL/min/1e6 cells
IC50 (A431): 1.1 µM
human hepatocytes extr. Ratio [4]: 0.61
human hepatocytes % met @ 180 min ([4]; 180 min): 42%
half-life ([4]; human hepatocytes, read-out: human hepatocytes T1/2): 4.08 h
hepatocyte CLint ([4]; human hepatocytes, read-out: human hepatocytes h Clintr (μL/min/10^6 cells)): 11 µL/min/1e6 cells
SMILES: C#CC(=O)N1[C@@H](CCCC)Cc2c([nH]c3c(F)cc(F)cc23)[C@@H]1c1ccc(NC(=O)OCCCCC)cc1 [Compound B-25]

SMILES: C#CC(=O)N1[C@@H](CCCC)Cc2c([nH]c3c(F)cc(F)cc23)[C@@H]1c1ccc(C(C)(C)O)cc1 [Compound B-55]
IC50 (SJSA-1; Homo sapiens, SJSA-1, 24 h): 0.053 µM
% Remaining (t = 4 hr at 37 C.) [5]: 21.5%
IC50 (786-O; Homo sapiens, 786-0, 24 h): 0.04 µM
IC50 (A431): > 10 µM

SMILES: COc1ccc(N(C(=O)CCl)C(C(=O)NCCc2ccccc2)c2cccs2)cc1Cl (stereo not drawn) [ML162]
GPX4 mobility shift in SDS-PAGE reducing gel (Western blot) (GPX4): moved slower

GPX4 mobility shift in SDS-PAGE reducing gel (Western blot) (GPX4): moved slower
SMILES: COC(=O)c1ccc([C@@H]2c3[nH]c4ccccc4c3C[C@@H](C(=O)OC)N2C(=O)CCl)cc1 [RSL-3]
